From patent US20090061022A1, “Pharmaceutical composition comprising arsenite for the treatment of malignancy” (priority 2004, published 2009)
Several values for one entry are separate records, joined by “and”; a condition that tells them apart may be missing. Equal values may be shown once. Marks after values point to notes of the source that are not given here.

What was measured:
ALL-SCID 4 = assay: Anticancer activity in human leukemia model ALL-SCID 4; settings: for BW loss % (day) / Drug-related deaths: days 34-54
From the text: Anticancer activity of the sodium meta-arsenite and arsenic trioxide against two human paediatric acute lymphoblastic leukemia (ALL) models in vivo, ALL-SCID 4 was investigated to compare.
Male NOD/SCID mice (deficient in T and B lymphocytes, NK cells and functional macrophages) were transplanted s.c. on day 0 with fragments of ALL-SCID 4 cancers, which were obtained from mice used for routine passage of the cancers. Mice were randomized to the scheduled treatment groups.
Sodium meta-arsenite was administered orally at 2, 4 and 6 mg/kg/day (⅓ MTD, ⅔ MTD and MTD) once every day from day 34-54 after transplantation. The vehicle control (5% glucose in water) was administered i.p. (10 ml/kg).
Sodium meta-arsenite was dissolved in ready-to-use sterile infusion (5% (w/v) glucose in aqua injectabila). Arsenic trioxide was dissolved in 25 mM NaOH then dissolved in 5% glucose in aqua injectabila. The solutions were prepared freshly on the day of therapy for each administration.

[1] = system: panel of 9 human cancer cell lines; assay: Cytotoxic activity, whole panel of 9 human cancer cell lines (means, active/total); assay type: cell-based; settings: for Active/Total cancer cell lines / Active/Total cancer cell lines, percent: active = T/C<30
Protocol: Three kinds of stock solutions were prepared for in vitro cytotoxic activity test. The first solution is DMSO (dimethyl sulfoxide) mixed with sodium meta-arsenite. […] The third solution is DMSO mixed with arsenic acid sodium salt. Those three solutions were diluted with culture medium (RPMI 1640). The final concentrations of DMSO in those three solutions are less than 0.3 vol %.
(§1) Nine kinds of human cancer cell lines out of six kinds of cancers were grown at 37° C. under a controlled atmosphere of 95% air and 5% CO2. The cells were grown on monolayer cultures of RPMI 1640 cell culture medium supplemented with 10% fetal calf serum.
(§2) The grown cells were harvested from exponential phase cultures by trypsinization and counted. The counted cells were placed in a plate, which has ninety six wells. Each well on the plate is in a shape of a flat-bottomed microtitre. Density of the cells in a suspension was adjusted depending on the cell line. The suspension was prepared by diluting the grown cells with the culture medium (RPMI 1640). […] Then add 50 μl of culture medium (RPMI 1640) only to 6 wells, 50 μl/well, among the 96 wells of one plate. It is called controlled. One well is filled with culture medium plus 5-FU. And another 50 μl of culture medium plus one of the stock solutions were added to each of the left 89 wells to allow cells to resume exponential growth.
The cytotoxic activity test was executed with three plates simultaneously to check reliability of the data obtained. The three plates contain the same samples of cancer cells. The three plates were then incubated for 3-7 days under the same controlled atmosphere and cell proliferation was assessed with a modified propodium iodide fluorescence assay. After thawing of the plates, fluorescence was measured using a Millipore Cytofluor 2350-microplate reader (excitation 530 nm emission 620 nm) in order to quantify the total cell number. The assay included untreated and positive controls containing 5-FU.
Growth inhibition is defined as (numbers of cancer cell alive) treated (T)/(number of cells) control (C)×100% (T/C %).

[2] = system: panel of 12 human cancer cell lines; assay: Cytotoxic activity, whole panel of 12 human cancer cell lines, modified propidium iodide assay; settings: for times more potent than arsenic acid sodium salt: panel of 12
Protocol: as §1
as §2, with “1640). Concentration of the cells were varied from 5×10^4 to 1×10^5 viable cells/ml. 100 μl of the suspension was placed in each well of the plate.” for “1640).”
In a further study, the cytotoxic activity profile of sodium meta-arsenite and arsenic acid sodium salt was investigated in different panels containing twelve (12) human cancer cell lines from eight (8) kinds of human cancers. The cancer cell samples were prepared as described in 1-1-B. Propidium iodide fluorescence assay method for this test was modified as the follows.

[3] = mean over human cancer cell lines tested (9 line panel)
[4] = panel of 12 human cancer cell lines, 4 days

O=[As][O-].[Na+] [Sodium meta-arsenite, sodium meta-arsenite]
BW loss % (day) (ALL-SCID 4; 2 mg/kg p.o.): 0 (44) % | Drug-related deaths (ALL-SCID 4; 2 mg/kg p.o.): 0/8 | T/C % (ALL-SCID 4; 2 mg/kg p.o., days 34-54 (⅓ MTD)): 38* % | T/C % (ALL-SCID 4; 2 mg/kg p.o., days 34-54 (⅓ MTD), listed as sodium meta-arsenite): 38% | BW loss % (day) (ALL-SCID 4; 4 mg/kg p.o.): +5 (44) % | Drug-related deaths (ALL-SCID 4; 4 mg/kg p.o.): 0/8 | T/C % (ALL-SCID 4; 4 mg/kg p.o., days 34-54 (⅔ MTD)): 55* % | T/C % (ALL-SCID 4; 4 mg/kg p.o., days 34-54 (⅔ MTD), listed as sodium meta-arsenite): 55% | BW loss % (day) (ALL-SCID 4; 6 mg/kg p.o.): +5 (44) % | Drug-related deaths (ALL-SCID 4; 6 mg/kg p.o.): 0/8 | T/C % (ALL-SCID 4; 6 mg/kg p.o., days 34-54 (MTD)): 48* % | T/C % (ALL-SCID 4; 6 mg/kg p.o., days 34-54 (MTD), listed as sodium meta-arsenite): 48% | MTD (ALL-SCID 4; small dose finding studies prior to the ALL-SCID 4 study): 6 mg/kg/day | Body weight loss and lethality (ALL-SCID 4; treated groups 2, 4, 6 mg/kg/day p.o.): not observed | Active/Total cancer cell lines ([1]; 1 μg/ml): 1/9 | Active/Total cancer cell lines, percent ([1]; 1 μg/ml): 11% | Active/Total cancer cell lines ([1]; 3 μg/ml): 2/8 | Active/Total cancer cell lines, percent ([1]; 3 μg/ml): 25% | Active/Total cancer cell lines ([1]; 10 μg/ml): 3/9 | Active/Total cancer cell lines, percent ([1]; 10 μg/ml): 33% | Active/Total cancer cell lines ([1]; 30 μg/ml): 4/8 | Active/Total cancer cell lines, percent ([1]; 30 μg/ml): 50% | Active/Total cancer cell lines, percent ([1]; 100 μg/ml): 89% | Assessment from comparison of the IC50 values ([1]; 9 cell line panel): most potent compound of the series | IC50 [1, 3]: 56 µM | IC90 [1, 3]: 490 µM | Mean IC50 [1, 3]: 7.3 µg/mL | Mean IC70 [1, 3]: 19.8 μg/ml and 152 μM | Mean IC90 [1, 3]: 63.7 µg/mL | human cancer cell lines in which active, percent of 12 ([2]; 1 μg/ml): 33% | human cancer cell lines in which active, percent of 12 ([2]; dose level 10 μg/ml): 100% | human cancer cell lines in which active, percent of 12 ([2]; dose level 100): 100% | cytotoxic activity in panel of 12 ([2]; dose level lower than 1 μg/ml): did not display any cytotoxic activity at all | times more potent than arsenic acid sodium salt ([2]; in μg/ml): over 20 times | times more potent than arsenic acid sodium salt ([2]; on a molar basis): approximately 10 times | Mean IC50 [2, 4]: 0.9 µg/mL | Mean IC70 [2, 4]: 2.0 μg/ml and 15 μM | Mean IC90 [2, 4]: 6.8 µg/mL | IC50 ([2]; read-out: Mean IC50, panel of 12 human cancer cell lines, 4 days): 7 µM | IC90 ([2]; read-out: Mean IC90, panel of 12 human cancer cell lines, 4 days): 52 µM
